Experimental data reported in patent US20220315554A1, “COMPOUNDS COMPRISING A […] LIGAND AND USE THEREOF” (priority 2019, published 2022).
Numbered stars: 1 amine (or outer) side, 2 acyl side, 3 side chain; on linkers, the order of the positions; unused ones are H or OH. Bridge positions count the residues as written; N and C are the ends. Peptide text beside a SMILES is read from it. * marks the point of attachment. X1 = O=C(O)CN1CCN(CC(=O)O)CCN(CC(=O)N2CCN(Cc3cc(C[*:1])cc(C[*:2])c3)CC2)CCN(CC(=O)O)CC1; Hexanoyl = CCCCCC(=O)*

Tests used:
Sarc4809 PDX tumors = test: Efficacy study sarcoma Sarc4809 PDX model; conditions: throughout the study
HEK-FAP tumors = test: Efficacy study HEK-FAP tumors; conditions: throughout the study
hERG potassium channel = hERG potassium channel (Homo sapiens, UniProt Q12809); test: in vitro
[1] = target: T1, FAP-expressing human WI-38 fibroblasts (Homo sapiens, UniProt Q12884); test: Competitive FACS binding assay; conditions: pIC50 Category (FACS), competition with 3 nM Cy5-labeled compound, WI-38 fibroblasts, 4° C., 1 hour
T1 construct: FAP-expressing human WI-38 fibroblasts (ECACC) were cultured in EMEM; host or cells: WI-38 human fibroblasts
T1 sequence (Q12884 1-760): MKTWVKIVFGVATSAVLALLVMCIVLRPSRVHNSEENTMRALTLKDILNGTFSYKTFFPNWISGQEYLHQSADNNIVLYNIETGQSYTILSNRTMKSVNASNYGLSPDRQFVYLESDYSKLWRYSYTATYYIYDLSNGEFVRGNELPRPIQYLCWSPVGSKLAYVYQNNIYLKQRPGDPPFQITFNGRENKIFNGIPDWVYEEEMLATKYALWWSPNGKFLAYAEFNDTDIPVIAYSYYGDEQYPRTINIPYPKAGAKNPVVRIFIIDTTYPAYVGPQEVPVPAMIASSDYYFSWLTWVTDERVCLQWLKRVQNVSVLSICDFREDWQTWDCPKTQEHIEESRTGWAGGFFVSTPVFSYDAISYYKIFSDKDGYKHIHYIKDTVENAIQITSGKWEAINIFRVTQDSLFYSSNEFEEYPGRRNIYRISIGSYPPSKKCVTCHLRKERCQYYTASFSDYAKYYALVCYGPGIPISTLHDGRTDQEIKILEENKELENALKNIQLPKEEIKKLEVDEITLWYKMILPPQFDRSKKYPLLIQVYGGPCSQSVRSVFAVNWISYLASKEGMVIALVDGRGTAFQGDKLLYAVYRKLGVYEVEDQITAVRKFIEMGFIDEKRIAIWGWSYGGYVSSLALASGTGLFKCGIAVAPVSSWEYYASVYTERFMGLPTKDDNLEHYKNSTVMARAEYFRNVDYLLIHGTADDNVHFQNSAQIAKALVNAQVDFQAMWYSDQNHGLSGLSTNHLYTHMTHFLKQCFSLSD
Protocol: Cells were analyzed in an Attune NxT flow cytometer. […]

BZD (central) = conditions: 10 μM
Human recombinant FAP [2] = target: T2, Human recombinant FAP (Homo sapiens, UniProt Q12884); test: Surface plasmon resonance (Biacore) assay; type: binding
T2 sequence (Q12884 1-760): T1 sequence (Q12884 1-760)

NMDA = conditions: 10 μM
proteases [3] = target: T3, proteases (Hepatitis C virus genotype 1b, UniProt P26663, D1194V); test: biochemical; conditions: read-out: Percentage inhibition (%)
T3 construct: BPS Biosciences (contract assay)

proteases [4] = target: T4, proteases (Hepatitis C virus genotype 1a, UniProt P27958, D1194V); test: biochemical
T4 construct: BPS Biosciences (contract assay)

proteases [5] = target: T5, proteases (Hepatitis C virus genotype 1b, UniProt P26663, R1181Q); test: biochemical; conditions: read-out: Percentage inhibition (%)
T5 construct: BPS Biosciences (contract assay)

proteases [6] = target: T6, proteases (Hepatitis C virus genotype 1b, UniProt P26663); test: biochemical; conditions: read-out: Percentage inhibition (%)
T6 construct: BPS Biosciences (contract assay)

proteases [7] = target: T7, proteases (Hepatitis C virus genotype 1b, UniProt P26663, R1181K); test: biochemical; conditions: for inhibition at 1 µM / inhibition at 10 µM: read-out: Percentage inhibition (%)
T7 construct: BPS Biosciences (contract assay)

Human recombinant FAP [8] = target: T2, Human recombinant FAP; test: FRET-based FAP protease activity assay; type: biochemical; design: purchased R&D systems 3715-SE; conditions: pIC50 Category (Activity), recombinant human FAP, FRET substrate, 37° C.
[9] = Plasma stability assay, human plasma; type: in vitro ADME; conditions: 24 h incubation, 37° C., read-out: % intact compound remaining after incubation, Human plasma
[10] = tested on: Ca2+ channel (L, dihydropyridine site); conditions: 10 μM
recombinant human PREP = target: T8, recombinant human PREP (Homo sapiens, UniProt P48147); test: PREP protease activity assay; type: biochemical
T8 construct: purchased R&D systems 4308-SE
T8 sequence (P48147 1-710): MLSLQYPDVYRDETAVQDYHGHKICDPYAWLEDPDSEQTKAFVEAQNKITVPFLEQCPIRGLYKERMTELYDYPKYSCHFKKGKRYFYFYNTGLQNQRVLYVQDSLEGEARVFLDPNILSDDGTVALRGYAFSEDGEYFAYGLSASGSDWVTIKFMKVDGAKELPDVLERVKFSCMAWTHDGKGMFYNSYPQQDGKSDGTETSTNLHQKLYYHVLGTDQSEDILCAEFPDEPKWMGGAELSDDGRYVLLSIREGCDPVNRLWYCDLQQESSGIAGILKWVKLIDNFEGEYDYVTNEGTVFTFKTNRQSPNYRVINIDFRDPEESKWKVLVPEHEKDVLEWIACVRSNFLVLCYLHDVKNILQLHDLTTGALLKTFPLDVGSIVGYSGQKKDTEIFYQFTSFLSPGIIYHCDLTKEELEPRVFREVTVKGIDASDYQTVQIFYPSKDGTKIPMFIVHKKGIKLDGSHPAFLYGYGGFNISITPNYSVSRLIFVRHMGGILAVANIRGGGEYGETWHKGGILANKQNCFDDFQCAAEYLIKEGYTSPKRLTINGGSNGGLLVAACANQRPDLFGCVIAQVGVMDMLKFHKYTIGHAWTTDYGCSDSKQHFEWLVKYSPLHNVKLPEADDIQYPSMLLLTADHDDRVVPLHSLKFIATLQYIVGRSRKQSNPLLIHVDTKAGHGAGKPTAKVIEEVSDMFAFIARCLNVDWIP

in vivo = conditions: rat, plasma, intravenous; for Vd: rat plasma
in vitro = conditions: rat, plasma
KV channel = conditions: 10 μM
Na+ channel (site 2) = test: SafetyScreen44: Na+ channel (site 2) (antagonist radioligand); type: binding; conditions: 10 μM
Recombinant human DPP4 = target: T9, Recombinant human DPP4 (Homo sapiens, UniProt P27487); test: DPP4 protease activity assay; type: biochemical
T9 construct: purchased R&D systems 9168-SE

AR (h) = AR (h) (Homo sapiens, UniProt P10275, T878A); test: biochemical; conditions: read-out: % Inhibition of Specific Binding
alpha 1A (h) = alpha 1A (h) (Homo sapiens, UniProt P35348); conditions: read-out: Ki Ref, reference compound (positive control)
[11] = Plasma stability assay, mouse plasma; type: in vitro ADME; conditions: 24 h incubation, 37° C., read-out: % intact compound remaining after incubation, Mouse plasma
proteases [12] = target: T10, proteases (Hepatitis C virus genotype 2a, UniProt Q99IB8); test: biochemical; conditions: serine protease NS3 (a.a. 3-181) from Hepatitis C virus genotype 2a; reference at 100 nM
T10 construct: BPS Biosciences (contract assay)

proteases [13] = target: T11, proteases (Homo sapiens, UniProt P03956); test: biochemical; conditions: Matrix metalloprotease1; reference at 1 μM
T11 construct: BPS Biosciences (contract assay)

proteases [14] = target: T12, proteases (Homo sapiens, UniProt P08253); test: biochemical; conditions: Matrix metalloprotease 2; reference at 100 nM
T12 construct: BPS Biosciences (contract assay)

proteases [15] = target: T13, proteases (Homo sapiens, UniProt P14780, Q279R); test: biochemical; conditions: 0.1 µM
T13 construct: BPS Biosciences (contract assay)

5-HT2B (h) = 5-HT2B (h) (Homo sapiens, UniProt P41595); conditions: read-out: Ki Ref, reference compound (positive control)
[16] = read-out: Percentage inhibition (%)

CCCCCC(=O)N[C@H]1CSCc2cc(CSCCNC(=O)CN3CCN(CC(=O)O)CCN(CC(=O)O)CCN(CC(=O)O)CC3)cc(c2)CSC[C@@H](C(=O)O)NC(=O)[C@H](Cc2ccccc2)NC(=O)[C@H](CCC(N)=O)NC(=O)[C@H]([C@@H](C)O)NC(=O)[C@@H]2CCCN2C(=O)[C@@H]2CCCN2C1=O [^177Lu-3BP-3554, metal not drawn]
treatment-related body weight loss (BWL) (Sarc4809 PDX tumors): No treatment-related body weight loss
treatment-related body weight loss (HEK-FAP tumors): No treatment-related body weight loss

CCCCCC(=O)N[C@H]1CSCc2cc(CSCCNC(=O)CN3CCN(CC(=O)O)CCN(CC(=O)O)CCN(CC(=O)O)CC3)cc(c2)CSC[C@@H](C(=O)O)NC(=O)[C@H](Cc2ccccc2)NC(=O)[C@H](CCC(N)=O)NC(=O)[C@H]([C@@H](C)O)NC(=O)[C@@H]2CCCN2C(=O)[C@@H]2CCCN2C1=O [3BP-3554, Hex-[Cys(tMeBn(DOTA-AET))-Pro-Pro-Thr-Gln-Phe-Cys]-OH]
inhibition at 10 µM (hERG potassium channel): 6%
IC50 [1]: < 0.01 µM
% Inhibition of Specific Binding (BZD (central)): 5%
Kd (Human recombinant FAP [2]): < 0.01 µM
% Inhibition of Specific Binding (NMDA): 1%
inhibition at 1 µM (proteases [3]): -2%
inhibition at 10 µM (proteases [3]): -17%
inhibition at 1 µM (proteases [4]; [16]): -39%
inhibition at 1 µM (proteases [5]): 0%
inhibition at 10 µM (proteases [5]): -5%
inhibition at 1 µM (proteases [6]): -5%
inhibition at 10 µM (proteases [6]): -9%
inhibition at 1 µM (proteases [7]): -1%
inhibition at 10 µM (proteases [7]): 0%
IC50 (Human recombinant FAP [8]): < 0.01 µM
remaining at 24 h, 9.8 µM [9]: 100%
% Inhibition of Specific Binding [10]: 54%
IC50 (recombinant human PREP): > 1 µM
AUC(0-inf) (in vivo; 2 nmol/kg): 0.0081 µM·h
C0 (in vivo; 2 nmol/kg): 10.3 nM
clearance (in vivo; 2 nmol/kg): 4.13 mL/min/kg
half-life (in vivo; 2 nmol/kg): 54 min
Vd (in vivo; 2 nmol/kg, Vss, 2 nmol/kg): 0.28 L/kg
Vd (in vivo; 2 nmol/kg, Vz): 0.32 L/kg
AUC(0-inf) (in vivo; 20 nmol/kg): 0.069 µM·h
C0 (in vivo; 20 nmol/kg): 111 nM
clearance (in vivo; 20 nmol/kg): 4.85 mL/min/kg
half-life (in vivo; 20 nmol/kg): 50 min
Vd (in vivo; 20 nmol/kg, Vss, 20 nmol/kg): 0.3 L/kg
Vd (in vivo; 20 nmol/kg, Vz): 0.35 L/kg
AUC(0-inf) (in vivo; 200 nmol/kg): 0.726 µM·h
C0 (in vivo; 200 nmol/kg): 1480 nM
clearance (in vivo; 200 nmol/kg): 4.58 mL/min/kg
half-life (in vivo; 200 nmol/kg): 63 min
Vd (in vivo; 200 nmol/kg, Vss, 200 nmol/kg): 0.17 L/kg
Vd (in vivo; 200 nmol/kg, Vz): 0.42 L/kg
remaining at 24 h, 9.8 µM (in vitro): 100%
% Inhibition of Specific Binding (KV channel): 4%
% Inhibition of Specific Binding (Na+ channel (site 2)): 14%
IC50 (Recombinant human DPP4): > 1 µM
inhibition at 10 µM (AR (h)): -5%

COc1cccc(OC)c1OCCNCC1COc2ccccc2O1 (stereo not shown) [WB 4101]
Ki (alpha 1A (h)): 0.00024 µM

CCCCCC(=O)N[C@H]1CSCc2cc(cc(CN3CCN(C(=O)CN4CCN(CC(=O)O)CCN(CC(=O)O)CCN(CC(=O)O)CC4)CC3)c2)CSC[C@@H](C(=O)N[C@@H](CC(=O)O)C(N)=O)NC(=O)[C@H](Cc2ccccc2)NC(=O)[C@H](CCC(N)=O)NC(=O)[C@H]([C@@H](C)O)NC(=O)[C@@H]2CCCN2C(=O)[C@@H]2CCCN2C1=O [3BP-3407, Hex-[Cys(tMeBn(DOTA-PP))-Pro-Pro-Thr-Gln-Phe-Cys]-Asp-NH2] (Hexanoyl-CPPTQFCD-NH2; linker 1-7 via X1)
inhibition at 10 µM (hERG potassium channel): 2%
IC50 [1]: < 0.01 µM
% Inhibition of Specific Binding (BZD (central)): −9%
Kd (Human recombinant FAP [2]): < 0.01 µM
% Inhibition of Specific Binding (NMDA): 9%
inhibition at 1 µM (proteases [3]): 1%
inhibition at 10 µM (proteases [3]): -6%
inhibition at 1 µM (proteases [4]; [16]): 1%
inhibition at 10 µM (proteases [4]; [16]): -68%
inhibition at 1 µM (proteases [5]): 0%
inhibition at 10 µM (proteases [5]): 2%
inhibition at 1 µM (proteases [6]): 1%
inhibition at 10 µM (proteases [6]): 5%
inhibition at 1 µM (proteases [7]): -2%
inhibition at 10 µM (proteases [7]): 5%
IC50 (Human recombinant FAP [8]): < 0.01 µM
remaining at 24 h, 9.8 µM [9]: 100%
% Inhibition of Specific Binding [10]: 42%
IC50 (recombinant human PREP): > 1 µM
remaining at 24 h, 9.8 µM [11]: 79%
remaining at 24 h, 9.8 µM (in vitro): 100%
% Inhibition of Specific Binding (KV channel): −5%
% Inhibition of Specific Binding (Na+ channel (site 2)): −7%
IC50 (Recombinant human DPP4): > 1 µM
inhibition at 10 µM (AR (h)): 3%

CC(C)(C)OC(=O)N[C@H]1CCCCC/C=C\[C@@H]2C[C@@]2(C(=O)NS(=O)(=O)C2CC2)NC(=O)[C@@H]2C[C@@H](OC(=O)N3Cc4cccc(F)c4C3)CN2C1=O [Denoprevir]
Percentage inhibition (%) Reference (proteases [4]; serine protease NS3 (a.a. 3-181) from Hepatitis C virus genotype 1a (mutant D168 V), reference at 100 nM): 94%
Percentage inhibition (%) Reference (proteases [12]): 98%
Percentage inhibition (%) Reference (proteases [7]; serine protease NS3 (a.a. 3-181) from Hepatitis C virus genotype 1b (mutant R155K), reference at 100 nM): 90%

COc1ccc(S(=O)(=O)N(CC(=O)NO)CC(C)C)cc1 [NNGH]
Percentage inhibition (%) Reference (proteases [13]): 87%
Percentage inhibition (%) Reference (proteases [14]): 95%
Percentage inhibition (%) Reference (proteases [15]): 92%

COc1cc(CC(C)N)c(OC)cc1I (racemic) [(±)DOI]
Ki (5-HT2B (h)): 0.0042 µM
